Common to all, as to test: Fluorescence competition binding assay (displacement of DC271)
The target of assay [1] is T1, RARα (Homo sapiens, UniProt P10276).
T1 construct: His6-3C-NusA (cleaved yes); made in house; host or cells: E. coli BL21(DE3), pET50b vector
T1 sequence (P10276 183-417 limits assumed): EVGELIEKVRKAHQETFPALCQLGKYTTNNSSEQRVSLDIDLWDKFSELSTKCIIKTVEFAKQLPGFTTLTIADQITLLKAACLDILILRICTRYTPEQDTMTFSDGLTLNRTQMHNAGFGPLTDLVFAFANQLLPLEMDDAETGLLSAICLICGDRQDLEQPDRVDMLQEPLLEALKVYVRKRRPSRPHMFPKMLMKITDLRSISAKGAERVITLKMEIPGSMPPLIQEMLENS
The conditions noted are these: for Kd: 100 nM RAR and DC271 on plate, read-out: Binding KD (± SD) RARα; for ΔGEXP RARα: experimental binding free energy from K D, ΔGexp=−RT ln K, 298.1 K. The procedure: (§1) Fluorescence competition assays were employed to determine the relative binding affinities of each synthetic retinoid toward the LBD of the RARs. The assay is based on the potential for competitive displacement of the inherently fluorescent retinoid DC271 from the LBP by a test nonfluorescent synthetic retinoid. Changes in the fluorescence were measured following the addition of a serial dilution of the test compound and the results were plotted to generate a binding curve. […] Assays were performed for both RARα and RARγ. […] Nonlinear least-squares regression analyses were performed to calculate binding affinities and reported as binding K D, the equilibrium dissociation constant between the RAR isoform and the test synthetic retinoid.
(§2) RARα/γ proteins were expressed in BL21(DE3) cells (NEB) transformed into pET50b (Novagen) and pOPINS3C vectors, respectively, carrying the gene construct and containing a His6-3C-NusA tag or His6-3C-SUMO tag used for solubility. Transformations were carried out under standard conditions using Quick Transformation Protocol (New England Biolabs). Successful transformants were grown overnight in 2xYT media (Melford) and frozen for storage at −80 °C in 50% glycerol. Expression cultures were inoculated from glycerol stocks into 25 mL of 2xYT media (Melford) with 50 μg/mL kanamycin or 100 μg/mL ampicillin (Sigma-Aldrich) and grown overnight with shaking (37 °C, 150 rpm). The overnight cultures were transferred into 1 L expression flasks (2xYT/ampicillin 100 μg/mL or 2xYT/kanamycin 50 μg/mL) and grown with shaking at 37 °C, 150 rpm. Induction was carried out at an OD600 of 0.6–0.8, with 1 mL of 1 M IPTG (1 mM in culture), before shaking overnight (20 h) at 18 °C. The resulting cultures were spun down into pellets using an Avanti Hi-Speed centrifuge (JLA 8.1000, 4000 rpm, 30 min, 4 °C), before the supernatant was removed and the bacterial pellet were frozen at −80 °C.
(§3) RARα/γ (pET50b or pOPINS3C, BL21(DE3) (NEB)) were resuspended from pellet with 20 mL Wash Buffer (20 mM Tris-HCl, 300 mM NaCl and 20 mM imidazole, pH 8) and the resulting suspension was sonicated on ice (40% power, 2 min, repeated twice with 1 min rest in-between) before centrifuging (Avanti Hi-Speed JA25.50, 20,000 rpm, 1 h, 4 °C). Supernatants were clarified using 0.45 μm syringe filters (Thermo Fisher Scientific). Affinity chromatography and size-exclusion (SEC) chromatography were carried out on AKTA Pure25 (Cytiva). Supernatants were loaded onto the HisTrap HP column (5 mL, Cytiva) and washed using 25 mL of wash Buffer. The column was washed with Wash Buffer until UV trace returned to baseline, before RARα/γ was eluted using a gradient of Elution Buffer (20 mM Tris-HCl, 300 mM NaCl, 500 mM imidazole pH 8). The resulting protein-containing fractions were analyzed by SDS-PAGE (200 V, 30 min) using SurePAGE Bis-Tris 12% precast gels (Genscript). Protein concentrations were estimated using absorbance at 280 nm on a DS-11 spectrophotometer (Denovix) with calculated molecular weights and extinction coefficients (Expasy). RAR proteins were cleaved overnight from 3C-NusA tag or 3C-SUMO-His tag using 1 Unit/100 μg protein of HRV3C protease (Thermo Fisher Scientific) at 4 °C. Solution after digestion was loaded onto a HiLoad 16/600 Superdex 75 prep-grade column (Cytiva) and cleaved RARα/γ was separated from the tag based on molecular weight and eluted from the column using SEC Buffer (20 mM Tris-HCl, 300 mM NaCl and 0.5 mM TCEP, pH 8) into 2 mL fractions. The resulting protein fractions were analyzed by SDS PAGE (200 V, 30 min) using SurePAGE Bis-Tris 12% precast gels (Genscript), before being concentrated to 5 mg/mL using centrifugal concentrators (Sartorius) and frozen at −80 °C in small aliquots for use in binding assays.

Assay [2] concerns the target T2, RARα (Homo sapiens, UniProt P10276).
T2 sequence (P10276 182-417): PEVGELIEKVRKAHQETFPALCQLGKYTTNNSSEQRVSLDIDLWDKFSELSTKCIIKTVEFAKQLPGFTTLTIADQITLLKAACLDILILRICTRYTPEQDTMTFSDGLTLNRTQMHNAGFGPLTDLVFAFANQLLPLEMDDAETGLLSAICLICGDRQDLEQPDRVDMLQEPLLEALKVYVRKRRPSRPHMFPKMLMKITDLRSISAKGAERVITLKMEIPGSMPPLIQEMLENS
Particulars: stated for the RARs (RARα and RARγ) together; read-out: K D, binding to the RARs. As for the experimental part: as §1, §2, §3

The test system of assay [3] is RARα. Also on record: species or system human. The conditions noted are these: log-log plot of K D for RARα and RARγ. The procedure: as §1, §2, §3

Each structure is given as a SMILES string. Read-outs that look alike come from different tables or passages of the source.

On to `COc1cc2c(cc1C#Cc1ccc(C(=O)O)cn1)C(C)(C)CCC2(C)C` [Compound 27, 6-[2-(3-Methoxy-5,5,8,8-tetramethyl-5,6,7,8-tetrahydronaphthalen-2-yl)ethynyl]pyridine-3-carboxylic Acid], for which the Kd on RARα [1] is 1820 nM; at RARα [2], above 1000 nM. Moreover, the “ΔGEXP RARα” value on RARα [1] was -7.84 kcal/mol. Further, the “binding preference RARα versus RARγ (from K D)” value in the assay on RARα [3] was “close to the plotted line representing equal binding affinity for RARα and RARγ”.
With `Cc1cc2c(cc1C#Cc1ncc(C(=O)O)cn1)C(C)(C)CCC2(C)C` [Compound 28, 2-[2-(3,5,5,8,8-Pentamethyl-5,6,7,8-tetrahydronaphthalen-2-yl)ethynyl]pyrimidine-5-carboxylic Acid], on RARα [1], the Kd was determined as 420 nM and the “ΔGEXP RARα” value was -8.72 kcal/mol. Also, the Kd at RARα [2] lay in the range of 100 to 1000 nM. For the same compound, in the assay on RARα [3], the “binding preference RARα versus RARγ (from K D)” value is “bind RARα preferentially over RARγ”.
With `CC1(C)CCC(C)(C)c2nc(C#Cc3ccc(C(=O)O)cc3)cnc21` [Compound 30, 4-[2-(5,5,8,8-Tetramethyl-5,6,7,8-tetrahydroquinoxalin-2-yl)ethynyl]benzoic Acid], on RARα [1], the Kd turned out to be 155 nM and the “ΔGEXP RARα” value is -9.29 kcal/mol. The Kd on RARα [2] lay in the range of 100 to 1000 nM. Also, in the assay with RARα [3], the “binding preference RARα versus RARγ (from K D)” value was “close to the plotted line representing equal binding affinity for RARα and RARγ”.
On to `CC1(C)CCC(C)(C)c2nc(C#Cc3ccc(C(=O)O)cc3F)cnc21` [Compound 31, 3-Fluoro-4-[2-(5,5,8,8-tetramethyl-5,6,7,8-tetrahydroquinoxalin-2-yl)ethynyl]benzoic Acid], for which, at RARα [1], the Kd stood at 203 nM and the “ΔGEXP RARα” value is -9.13 kcal/mol. Besides, the Kd on RARα [2] was 100 to 1000 nM. The “binding preference RARα versus RARγ (from K D)” value in the assay with RARα [3] was “bind RARγ stronger than RARα”.
With `Cc1sc(-c2ccc(C(=O)O)cc2)nc1-c1cnc2c(n1)C(C)(C)CCC2(C)C` [Compound 40, 4-[5-Methyl-4-(5,5,8,8-tetramethyl-5,6,7,8-tetrahydroquinoxalin-2-yl)-1,3-thiazol-2-yl]benzoic Acid], on RARα [1], the Kd is 559 nM and the “ΔGEXP RARα” value was -8.58 kcal/mol. In addition, the Kd on RARα [2] was 100 to 1000 nM. For the same compound, the “binding preference RARα versus RARγ (from K D)” value with RARα [3] is “close to the plotted line representing equal binding affinity for RARα and RARγ”.
As to `Cc1sc(-c2ccc(C(=O)O)c(F)c2)nc1-c1cnc2c(n1)C(C)(C)CCC2(C)C` [Compound 42, 2-Fluoro-4-[5-methyl-4-(5,5,8,8-tetramethyl-5,6,7,8-tetrahydroquinoxalin-2-yl)-1,3-thiazol-2-yl]benzoic Acid], the Kd is 162 nM on RARα [1] and 100 to 1000 nM at RARα [2]. For the same compound, at RARα [1], the “ΔGEXP RARα” value was -9.27 kcal/mol. Moreover, the “binding preference RARα versus RARγ (from K D)” value in the assay with RARα [3] was “close to the plotted line representing equal binding affinity for RARα and RARγ”.
As to `Cc1sc(-c2ccc(C(=O)O)cc2F)nc1-c1cnc2c(n1)C(C)(C)CCC2(C)C` [Compound 43, 3-Fluoro-4-[5-methyl-4-(5,5,8,8-tetramethyl-5,6,7,8-tetrahydroquinoxalin-2-yl)-1,3-thiazol-2-yl]benzoic Acid], on RARα [1], the Kd amounted to 2580 nM and the “ΔGEXP RARα” value is -7.64 kcal/mol. In addition, at RARα [2], the Kd was above 1000 nM. The “binding preference RARα versus RARγ (from K D)” value with RARα [3] was “close to the plotted line representing equal binding affinity for RARα and RARγ”.
